Measurements from PubChem BioAssay AID489006 (Sanford-Burnham Center for Chemical Genomics, 2010).
The source made the active and inactive calls. How the calls were made is not given here.

Tested on: Jurkat NF-kB reporter, luminescence
Test: NF-kB reporter inhibition in Jurkat cells, dose response, selectivity assay for B-cell receptor NF-kB inhibitor project, cell-based, luminescence (AID 489006)

| SMILES | IC50 |
| --- | --- |
| COc1ccc(-c2ccc(OC)c([C@H]3[C@H]4C=CC[C@@H](C)[C@@H]4C(=O)N3Cc3ccccc3)c2)cc1C | > 80 µM (inactive) |
| CCCOc1ccc(NC(=O)C(=O)NCCCn2ccnc2)cc1 | > 80 µM (inactive) |
| COc1ccc(-c2nsc(SCC(=O)Nc3cc(C)on3)n2)cc1 | > 80 µM (inactive) |
| Cn1c(=O)cc(OCCCC(=O)NCc2ccccn2)c2ccccc21 | > 80 µM (inactive) |
| CCn1c(=O)c2cc(C(=O)NC(C)C)sc2c2ccccc21 | > 80 µM (inactive) |
| O=C(NNC(=O)c1ccccc1O)c1ccc(Cl)c(S(=O)(=O)N2CCc3ccccc32)c1 | > 80 µM (inactive) |
| CNC(=O)CCc1nc(-c2ccc(C(C)(C)C)cc2)no1 | > 80 µM (inactive) |
| CCOc1cc2nc(-c3ccc(OC)c(OC)c3)nc(N3CCOCC3)c2cc1OC | 45.8 µM (inactive) |
| CC(C)(C)c1ccc(-c2nnc(SCC(=O)NC3CC3)o2)cc1 | > 80 µM (inactive) |
| Cc1cc(NC(=O)CCCN2C(=O)/C(=C/c3ccccc3Cl)SC2=S)no1 | 20.4 µM (inactive) |
| COc1cccc(-c2noc(CCC(=O)NCCc3ccccc3)n2)c1 | 29.8 µM (inactive) |
| CCN(CC(=O)Nc1c(F)cccc1F)C(=O)c1cc([N+](=O)[O-])ccc1N1CCCCC1 | > 80 µM (inactive) |
| Cc1ccc(/C=C2\SC(=S)N(CCCC(=O)Nc3ccccn3)C2=O)cc1 | 0.76 µM |
| O=C(CN1C(=O)c2ccccc2S1(=O)=O)N1CCc2ccccc21 | 1.76 µM |
| CC1(c2nnc(-c3cccc(Cl)c3)o2)CC(c2cccc(Cl)c2)=NO1 (stereo unspecified) | > 80 µM (inactive) |
| COc1ccc(S(=O)(=O)Nc2cc3c(C(C)=O)c(C)oc3c3ccccc23)cc1 | > 80 µM (inactive) |
| COc1ccc(/C=C2\SC(=S)N(CCC(=O)Nc3ccc(O)cc3)C2=O)cc1 | > 80 µM (inactive) |
| Cn1c(=O)cc(SCC(=O)N2CCCC2)c2cc(Cl)ccc21 | > 80 µM (inactive) |
| CCOc1ccc(-c2nc(CSCC(=O)NCc3ccco3)c(C)o2)cc1 | 64 µM (inactive) |
| COc1ccc(/C=C2/SC(=S)N(CCCC(=O)Nc3cccc(O)c3)C2=O)cc1 | > 80 µM (inactive) |
| CCOc1ccc(-c2noc(CCC(=O)O)n2)cc1 | 0.7 µM |
| Cc1[nH]c2ccccc2c1C(=O)CN1C(=O)NC2(CC(C)CC(C)(C)C2)C1=O (stereo unspecified) | 52.7 µM (inactive) |
| CN(C)C(=O)CCc1nc(-c2ccc(C(C)(C)C)cc2)no1 | > 80 µM (inactive) |
| Cn1c(=O)cc(OCCCC(=O)NC2CCCC2)c2ccccc21 | 39.5 µM (inactive) |
| COc1ccc(NC(=O)c2nnn(Cc3cccc(F)c3)c2N)c(OC)c1 | > 80 µM (inactive) |
| Cc1c(CCC(=O)O)c(=O)oc2cc3oc4c(c3cc12)CCCC4 | 7.43 µM |

| SMILES | IC50 |
| --- | --- |
| Cc1ccc(NC(=O)O/N=C/c2c(C)nn(C(C)(C)C)c2C)cc1Cl | < 0.16 µM |
| Cc1ccc(-c2nn3c(C)nnc3c3ccccc23)cc1S(=O)(=O)NC(C)(C)CO | 23.9 µM (inactive) |
| O=C1CCCc2c1[nH]c1ccc(CN3CCCCC3)cc21 | > 80 µM (inactive) |
| COc1ccc(/C=N\NC(=O)c2sccc2C)cc1Cn1nc(C)cc1C | > 80 µM (inactive) |
| CN(C)c1cc[n+](Cc2c(Cl)cccc2Cl)cc1 | > 80 µM (inactive) |
| O=C(C1CCC1)N1CCN(S(=O)(=O)c2ccc([N+](=O)[O-])cc2)CC1 | > 80 µM (inactive) |
| N#CC1=C(N)Oc2cc(Nc3ccccc3)ccc2C1c1ccncc1 (stereo unspecified) | 60.6 µM (inactive) |
| Cc1ccccc1-c1cc(C(=O)Nc2sc(C(=O)OC(C)C)c(C)c2C#N)c2ccccc2n1 | > 80 µM (inactive) |
| NNC(=O)COc1ccc(-c2nccc(-c3ccc(F)cc3)n2)cc1 | 1.79 µM |
| Nc1ccc(-c2cc3ccccc3oc2=O)cc1 | 0.24 µM |
| CCn1c(=O)cc(OCC(=O)N(C)C2CCCCC2)c2ccccc21 | > 80 µM (inactive) |
| COc1cc(-c2cc(=O)c3c(O)c(OC)c(OC)c(OC)c3o2)cc(OC)c1OC | > 80 µM (inactive) |
| O=C(Nc1nc2c(Br)cc(Br)cc2c(=O)s1)c1ccco1 | 2.52 µM |
| COc1ccc(C(=O)Nc2ccc(OC)c([N+](=O)[O-])c2)cc1Br | > 80 µM (inactive) |
| CCOCCCNc1nc2c(C)cccn2c(=O)c1/C=C1\SC(=S)N(C(C)CC)C1=O (stereo unspecified) | > 80 µM (inactive) |
| CC1=CC(C)(C)Nc2ccc(OC(=O)c3ccco3)cc21 | 1.4 µM |
| COC(=O)c1cc(NC(=O)Nc2cc(OC)ccc2OC)cc(C(=O)OC)c1 | 63.8 µM (inactive) |
| Fc1ccc(C2=Nn3c(nnc3-c3n[nH]c4c3CCC4)SC2)cc1 | > 80 µM (inactive) |
| CCc1ccc(/C=C2\SC(=S)N(CCC(=O)NC3=NCCS3)C2=O)cc1 | 1.3 µM |
| CC(C)CCNC(=O)CCCOc1cc(=O)n(C)c2ccccc12 | 70.4 µM (inactive) |
| CCc1ccc(/C=C2\SC(=S)N(CCCC(=O)Nc3ccccn3)C2=O)cc1 | 1.58 µM |
| Cc1cc(-c2cc(C(=O)NCc3ccccc3)on2)nc(S(C)(=O)=O)n1 | 3.91 µM |
| CCn1c(=O)cc(SCC(=O)N2CCN(C(=O)c3ccco3)CC2)c2ccccc21 | > 80 µM (inactive) |
| CC(C)C(c1nnnn1Cc1ccccc1)N(Cc1ccco1)Cc1cccs1 (stereo unspecified) | 73.6 µM (inactive) |
| COc1ccc(-c2nc(CSCC(=O)NCc3ccco3)c(C)o2)cc1 | 66.8 µM (inactive) |
| CC(C)(C)c1ccc(-c2cc(N)n[nH]2)cc1 | 6.02 µM |

| SMILES | IC50 |
| --- | --- |
| O=C(CCCN1C(=O)/C(=C/c2ccccc2Cl)SC1=S)NNC(=O)c1ccccc1Cl | 1.76 µM |
| CCN1C(=O)c2cccc3c(S(=O)(=O)Nc4ccccc4)ccc1c23 | 48.9 µM (inactive) |
| COc1ccc(/C=C2\SC(=S)N(CCC(=O)Nc3cccc(O)c3)C2=O)cc1 | > 80 µM (inactive) |
| Cc1ccc(/C=C2\SC(=S)N(CCCC(=O)Nc3cc(C)on3)C2=O)cc1 | 17.7 µM |
| Cn1cnc([N+](=O)[O-])c1Sc1ccc([N+](=O)[O-])cc1 | 8.41 µM |
| COc1ccc(C(=O)Nc2nnc(Cc3cccs3)s2)cc1OC | > 80 µM (inactive) |
| CN(C)S(=O)(=O)c1ccc(NC(=O)N2CCN(c3ccccc3)CC2)cc1 | > 80 µM (inactive) |
| COc1cc(/C=N/Nc2nc(Nc3ccccc3)nc(N3CCOCC3)n2)ccc1OC(=O)c1ccco1 | > 80 µM (inactive) |
| O=C(CCCN1C(=O)/C(=C/c2ccccc2Cl)SC1=S)Nc1cccnc1 | 6.58 µM |
| CC(C)CN(C(=O)COC(=O)C12CC3CC(CC(C3)C1)C2)c1c(N)n(Cc2ccccc2)c(=O)[nH]c1=O | 13.4 µM |
| CC(C)c1[nH]nc2c1C(c1ccco1)C(C#N)=C(N)O2 (stereo unspecified) | 40 µM (inactive) |
| CCN(CC)CCCN=Cc1c(-c2ccccc2)[nH]n(-c2nc3ccccc3s2)c1=O | 7.55 µM |
| CCN1C(=O)Nc2cccc3cccc1c23 | 36.2 µM (inactive) |
| CC(C)[C@H](N)c1nnc(SCC(=O)c2ccc(Cl)cc2)o1 | > 80 µM (inactive) |
| CCOC(=O)/C=C(\C)Sc1cc(=O)oc2ccccc12 | 4 µM |
| O=c1cccc2c1c1cc[nH]c3ccc(=O)n2c31 | 2.3 µM |
| CSc1ccc(-c2nc(CSCC(=O)NC3CC3)c(C)o2)cc1 | > 80 µM (inactive) |
| Cn1nc(-c2ccc(N3CCOCC3)c(NS(=O)(=O)c3ccccc3)c2)c2ccccc2c1=O | > 80 µM (inactive) |
| CCN(CC)CCOC(=O)c1ccc(NC(=O)CCCN2C(=O)S/C(=C/c3ccc(OC)cc3)C2=S)cc1 | 1.48 µM |
| COc1ccc(C(C(=O)NC2CCCCC2)N(C(=O)CCl)c2ccc(Cl)cc2)cc1 (stereo unspecified) | 0.47 µM |
| COc1ccc(OCc2cccc(C(=O)Nn3cc([N+](=O)[O-])cn3)c2)cc1 | 1.85 µM |
| COc1ccc(NS(=O)(=O)c2ccc(-c3coc(C)n3)cc2)cc1OC | > 80 µM (inactive) |
| Cc1ccc(C(=O)CSc2nnc(COc3cc(C)cc(C)c3)o2)cc1 | > 80 µM (inactive) |
| CCn1c(CN2CCN(c3ccc(Cl)cc3)CC2)nc2ccccc21 | 39.9 µM (inactive) |
| CCOc1ccc(S(=O)(=O)NCc2ccncc2)cc1NC(=O)c1ccccc1 | > 80 µM (inactive) |
| CCc1ccc(-c2nnn(CCC(=O)OC)n2)cc1 | 1.78 µM |

| SMILES | IC50 |
| --- | --- |
| CC1CN(S(=O)(=O)c2ccc(C(=O)Nc3nc(-c4cc5ccccc5o4)cs3)cc2)CC(C)O1 (stereo unspecified) | 49.9 µM (inactive) |
| CC(C)(C)C(=O)/C(=C/c1ccncc1)n1cncn1 | 2.89 µM |
| CC(C)(C)c1ccc(-c2noc(CCC(=O)NCc3ccco3)n2)cc1 | 1.13 µM |
| CCCCn1c2c(c(=N)c3ccccc31)CCC2 | > 80 µM (inactive) |
| COc1cc(C(=O)Nc2cc(C)c(OCC(=O)N3CCOCC3)c(C)c2)cc(OC)c1OC | > 80 µM (inactive) |
| N=c1ccn(Cc2c(Cl)cccc2Cl)cc1 | > 80 µM (inactive) |
| COc1cc(-c2nc3n(n2)C(c2ccc(F)cc2)C2=C(CCCC2=O)N3)cc(OC)c1OC (stereo unspecified) | > 80 µM (inactive) |
| Cc1nn(-c2ccc(N3CCCCC3)nn2)c(C)c1CCC(=O)Nc1ccccc1F | 71.1 µM (inactive) |
| Cc1ccc(O)c(NC(=O)COc2cc(C)ccc2C)c1 | > 80 µM (inactive) |
| Cc1ccoc1C(=O)Nc1ccc(CC(=O)O)cc1 | 0.26 µM |
| CC(=O)c1cccc(S(=O)(=O)Nc2cc(C(F)(F)F)ccc2N2CCOCC2)c1 | 62.2 µM (inactive) |
| O=C(CCCN1C(=O)/C(=C/c2ccccc2Cl)SC1=S)NNC(=O)c1ccccc1 | 5.2 µM |
| CCn1c(=O)cc(OCC(=O)NCc2ccc(C)o2)c2ccccc21 | > 80 µM (inactive) |
| CCC(CO)Oc1cc(NCc2ccccc2O)c2ncn(C(C)C)c2c1 (stereo unspecified) | > 80 µM (inactive) |
| C=C1C(=O)[C@@]23C[C@H]4[C@@H]5[C@@]6(C)CCC[C@@]57[C@@H]2[C@@H](O)[C@@H]1C[C@H]3[C@H]7N4C6 | 2.85 µM |
| Cc1ccc(Nc2nc(N/N=C\c3ccc4c(c3)OCO4)nc(N3CCOCC3)n2)cc1 | 70.3 µM (inactive) |
| Cn1c(=NC(=O)CCl)sc2ccccc21 | 1.18 µM |
| Cc1ccc(-c2cn(-c3ccccc3)c3[n+]2CCCS3)cc1 | > 80 µM (inactive) |
| Cc1cc(C)cc(NC(=O)Nc2ccc(NC(=O)c3ccccc3O)cc2)c1 | > 80 µM (inactive) |
| CCC(C)NC(=O)c1c(N)n(/N=C/c2ccccn2)c2nc3ccccc3nc12 (stereo unspecified) | 22.7 µM (inactive) |
| Cc1csc(NC(=O)/C=C/c2ccc3c(c2)OCO3)n1 | > 80 µM (inactive) |
| C#CCN(Cc1ccccc1)S(=O)(=O)C=C | 9.39 µM |
| Cn1c(=O)c2c(SCC(=O)Nc3ccccc3F)nc(-c3ccccc3F)nc2n(C)c1=O | > 80 µM (inactive) |
